According to patent US9410142B2, “Dendrimer-based excipients for the attenuation of protein aggregation” (Massachusetts Institute of Technology, priority 2010, dated 2016):

Tests used:
[1] = molecular target: α-chymotrypsinogen A (aCgn) (Bos taurus, UniProt P00766); assay: DSC denaturation midpoint temperature (Tm) of aCgn; format: physicochemical, Bovine; conditions: for dTm/d[3] aCgn denaturation midpoint temperature increment: 1 mg/mL aCgn, 20 mM sodium citrate pH 5, maximum dendrimer 0.2 mol/L; for rate of increase of Tm of aCgn: concentrations less than 0.2 mol/L
Experimental: The thermodynamic stability of aCgn in the presence of the arginine salts was determined by DSC (Microcal VP-Differential Scanning calorimeter located in the Biophysical Instrumentation Facility (BIF) at MIT). Each reading began with a minimum of three buffer-buffer up and down scans (in this case, the buffer also contains the cosolute of interest) to establish a reproducible thermal history followed by a single protein-buffer up scan. aCgn was analyzed at a concentration of 1 mg/mL in a 20 mM sodium citrate pH 5 buffer containing the cosolute of interest and a scan rate of 90° C./hour. The data was analyzed in the MicroCal Origin® plotting software. In the analysis, the last buffer-buffer reference scan was first subtracted from the data and then the data was normalized with respect to the protein concentration, cell volume, and scan rate. The baseline (which was progressed through the peak) was then subtracted from the plot and the denaturation midpoint temperature, Tm, was taken as the temperature at the peak maximum of the unfolding event. For each arginine salt, three concentrations (including zero concentration) were tested and Tm values with respect to cosolute concentration were fitted to a linear trend.
The thermostability of aCgn at 1 mg/mL in the presence of the modified dendrimers was assessed by determining the denaturation midpoint temperature (Tm) from DSC scans, which is a qualitative indicator of how the conformational stability of the protein is perturbed. Ghosh K et al. (2009) Proc Natl Acad Sci USA 106:10649-10654.

[2] = Partial molar volume from density measurements of dendrimer only solutions; format: physicochemical

Structure (SMILES)	dTm/d[3] aCgn denaturation midpoint temperature increment [1] [K * L/mol]	rate of increase of Tm of aCgn [1] [° C.*M^−1]	V0 partial molar volume at infinite dilution [2] [L/mol]
N=C(N)NCCNC(=O)CCN(CCC(=O)NCCNC(=N)N)CCN(CCC(=O)NCCNC(=N)N)CCC(=O)NCCNC(=N)N.O=P(O)(O)O.O=P(O)(O)O.O=P(O)(O)O.O=P(O)(O)O.O=P(O)(O)O.O=P(O)(O)O [Gdm(H2PO4)]	37.4	37.4	0.7254
N=C(N)NCCNC(=O)CCN(CCC(=O)NCCNC(=N)N)CCN(CCC(=O)NCCNC(=N)N)CCC(=O)NCCNC(=N)N.O=S(=O)(O)O.O=S(=O)(O)O.O=S(=O)(O)O [Gdm(SO4)1/2]	15.2	15.2	0.5665
